{
  "source": "patent US8158605B2",
  "about": "“Azacytidine analogues and uses thereof” (Mount Sinai School of Medicine, priority 2007, dated 2012)",
  "key": {"Jurkat": {"tested_on": "Jurkat", "experiment": "WST-1 cytotoxicity assay", "format": "cell-based", "conditions": "Homo sapiens", "description": "(§1) Human promyelocytic leukemia cell lines HL60, human histiocytic lymphoma U937, human chronic myelogenous leukemia K562, human acute T cell Jurkat, breast adenocarcinoma MCF-7, urinary bladder carcinoma 5637, prostate carcinoma DU-145 were purchased from American Type Culture Collection. All cell lines except Jurkat were maintained in RPMI 1640 medium (Gibco, Glasgow, UK) supplemented with 10% heat-inactivated fetal calf serum (FCS), 100 U/ml of penicillin, and […] streptomycin, in an atmosphere of 5% CO2 at 37° C. Jurkat cells were cultured in RPMI 1640 medium supplemented with 1.5 g/L sodium bicarbonate, 4.5 g/L glucose, 10 mM sodium pyruvate, and 10% FCS, 100 U/ml of penicillin, and […] streptomycin.\n(§2) MCF-7, DU-145, and 5637 cells (1×10^4/ml) were plated and allowed to adhere and spread for 24 hours. […] Cultures were incubated with WST-1 reagent for 1 hour. The production of formazan was measured by a microplate reader (Bio-Tek Instruments, Elx 800) at 450 nm with a reference wavelength of 650 nm. Growth inhibition was determined as compared to untreated cells (%). IC50 values were calculated using CalcuSyn software (Biosoft)."}, "MCF-7": {"tested_on": "MCF-7", "experiment": "WST-1 cytotoxicity assay", "format": "cell-based", "conditions": "Homo sapiens, MCF7", "description": "as §1, §2"}, "K562": {"tested_on": "K562", "experiment": "WST-1 cytotoxicity assay", "format": "cell-based", "conditions": "Homo sapiens", "description": "as §1, §2"}, "DU145": {"tested_on": "DU145", "experiment": "WST-1 cytotoxicity assay", "format": "cell-based", "conditions": "Homo sapiens, DU-145", "description": "as §1, §2"}, "5637": {"tested_on": "5637", "experiment": "WST-1 cytotoxicity assay", "format": "cell-based", "description": "as §1, §2"}, "HL60": {"tested_on": "HL60", "experiment": "WST-1 cytotoxicity assay", "format": "cell-based", "conditions": "Homo sapiens, HL-60", "description": "as §1, §2"}, "U937": {"tested_on": "U937", "experiment": "WST-1 cytotoxicity assay", "format": "cell-based", "conditions": "Homo sapiens, U-937", "description": "as §1, §2"}, "[1]": {"tested_on": "Hela cervix carcinoma cells", "experiment": "MTT cytotoxicity with or without nucleoside transport inhibitor dipyridamole", "format": "cell-based", "conditions": "for IC50: Homo sapiens, HeLa, 72 h, MTT", "description": "Dipyridamole was used as an inhibitor of the equilibrative nucleoside transporters hENT1 and hENT2. […] The cells were pre-incubated for 24 hours. Dipyridamole (10 μM) was added to the cells 30 minutes prior to the addition of the test compounds. […] Six wells were used per test concentration. The cells were incubated with test compound for 72 hours."}, "[2]": {"tested_on": "MT-3/ADR resistant breast carcinoma", "experiment": "MTT cytotoxicity", "format": "cell-based", "conditions": "MDR1, MT-3/ADR resistant breast carcinoma (overexpress MDR-1/p-glycoprotein), 24 hours", "description": "(§3) The cytotoxicity of Aza-C and 5-Aza-C-5′-elaidic acid was determined in a breast cancer cell line MT-3 and the adriablastin resistant cell line MT-3/ADR. The MT-3/ADR overexpress the MDR-1/p-glycoprotein. […] The cells were incubated for 24 hours. […] Six wells were used per test concentration. The cells were incubated with test compound for 24 hours. […] Similar activity was obtained for Aza-C and 5-Aza-C-5′-elaidic acid in the MT-3 breast carcinoma cell line, but in the MT-3/ADR resistant cell line the activity of Aza-C was lost. […] This may be of importance in the treatment of resistant cancer."}, "[3]": {"tested_on": "breast carcinoma cell line MT-3", "experiment": "MTT cytotoxicity", "format": "cell-based", "conditions": "MT-3 breast carcinoma, 24 hours", "description": "as §3"}, "[4]": {"conditions": "clinical plasma samples; cited from earlier work"}, "NFκB": {"tested_on": "NFκB", "experiment": "LPS stimulated NFκB luciferase reporter activity in U937 cells", "format": "cell-based, human", "conditions": "10 nM, LPS 1 μg/ml, 1, 3 or 6 hours, compared to DMSO treated control", "description": "NFκB-luciferase reporter genes were used to determine the influence of Aza-C and 5-Aza-C-5′-elaidic acid on NFκB-induced luciferase activity in a human monocytic cell line U937, stably transfected with a luciferase reporter containing three NFκB-binding sites. The induction of NFκB was performed using lipopolysaccharide (LPS) at 1 μg/ml for 30 minutes prior to the addition of Aza-C or 5-Aza-C-5′-elaidic acid in the concentrations 10 nM to the medium. The cells were cultured in RPMI-1640 medium including 10% fetal bovine serum. Before stimulation with LPS the cells were transferred to medium containing only 2% fetal bovine serum. Luciferase activity was measured by imaging in an IVIS imaging System 100 (Xenogen Corp., USA) after 1, 3 or 6 hours. The LPS stimulation increased with time over the 6 hours followed in the DMSO treated control cells. […] Generally, a positive stimulation of NFκB as observed for azacytidine is not positive, and it is positive that the LPS stimulation is not further increased by 5′Aza-C-5′-elaidic acid."}, "[5]": {"tested_on": "U937, HL60 and K562 cells", "experiment": "Differentiating induction (NBT reduction, benzidine staining)", "format": "cell-based, human", "conditions": "repeated exposure for 11 (HL60) or 14 (U937, K562) days", "description": "Cell differentiation was studied in terms of morphology. […] After initial treatment on day 0, cells were exposed to the new portions of drugs on day 4, 7, and 10. The differentiation was evaluated by NBT reduction assay (U937 and HL60) or by benzidine staining (K562)."}},
  "data": [
    {"smiles": "Nc1ncn([C@@H]2O[C@H](CO)[C@@H](O)[C@H]2O)c(=O)n1", "note": "[5-AzaC, 5-azacytidine, reference compound]", "values": [
      {"measurement": "IC50", "setting": "Jurkat; 24 hour treatment", "value": 9.5, "unit": "µM"},
      {"measurement": "IC50", "setting": "Jurkat; 48 hour treatment", "value": 5.32, "unit": "µM"},
      {"measurement": "IC50", "setting": "Jurkat; 72 hour treatment", "value": 4.77, "unit": "µM"},
      {"measurement": "IC50", "setting": "MCF-7; MCF-7, 24 hour treatment", "value": "> 160", "unit": "µM"},
      {"measurement": "IC50", "setting": "MCF-7; MCF-7, 48 hour treatment", "value": 93.7, "unit": "µM"},
      {"measurement": "IC50", "setting": "MCF-7; MCF-7, 72 hour treatment", "value": 53, "unit": "µM"},
      {"measurement": "IC50", "setting": "K562; K562, 24 hour treatment", "value": 8.27, "unit": "µM"},
      {"measurement": "IC50", "setting": "K562; K562, 48 hour treatment", "value": 15.5, "unit": "µM"},
      {"measurement": "IC50", "setting": "K562; K562, 72 hour treatment", "value": 5.83, "unit": "µM"},
      {"measurement": "IC50", "setting": "DU145; DU145, 24 hour treatment", "value": 20.9, "unit": "µM"},
      {"measurement": "IC50", "setting": "DU145; DU145, 48 hour treatment", "value": 7.11, "unit": "µM"},
      {"measurement": "IC50", "setting": "DU145; DU145, 72 hour treatment", "value": 7.2, "unit": "µM"},
      {"measurement": "IC50", "setting": "5637; 5637, 24 hour treatment", "value": 24.6, "unit": "µM"},
      {"measurement": "IC50", "setting": "5637; 5637, 48 hour treatment", "value": 6.72, "unit": "µM"},
      {"measurement": "IC50", "setting": "5637; 5637, 72 hour treatment", "value": 5.21, "unit": "µM"},
      {"measurement": "IC50", "setting": "HL60; HL60, 24 hour treatment", "value": 7.28, "unit": "µM"},
      {"measurement": "IC50", "setting": "HL60; HL60, 48 hour treatment", "value": 4.92, "unit": "µM"},
      {"measurement": "IC50", "setting": "HL60; HL60, 72 hour treatment", "value": 4.71, "unit": "µM"},
      {"measurement": "IC50", "setting": "U937; U937, 24 hour treatment", "value": 1.63, "unit": "µM"},
      {"measurement": "IC50", "setting": "U937; U937, 48 hour treatment", "value": 2.37, "unit": "µM"},
      {"measurement": "IC50", "setting": "U937; U937, 72 hour treatment", "value": 4.77, "unit": "µM"},
      {"measurement": "activity reduced by addition of dipyridamole", "setting": "[1]; Hela, with vs without dipyridamole", "value": 3, "unit": "fold"},
      {"measurement": "IC50", "setting": "[1]; Hela with dipyridamole (10 μM)", "value": 12.8, "unit": "µM"},
      {"measurement": "IC50", "setting": "[1]; without dipyridamole", "value": 4.32, "unit": "µM"},
      {"measurement": "IC50", "setting": "[2]", "value": "> 100", "unit": "µM"},
      {"measurement": "IC50", "setting": "[3]", "value": "12.6 ± 2.35", "unit": "µM"},
      {"measurement": "average terminal half-life", "setting": "[4]", "value": "1.50 ± 2.30", "unit": "h"},
      {"measurement": "LPS stimulated NFκB luciferase activity", "setting": "NFκB", "value": "further increased the LPS induced NFκB activation"},
      {"measurement": "differentiation induction", "setting": "[5]", "value": "did not induce significant differentiation"}
    ]}
  ]
}
